Test results: US10435388B2, “Selective inhibitors of clinically important mutants of the EGFR tyrosine kinase” (CS PHARMATECH LIMITED, priority 2016, dated 2019)
pIC50: −log10 of the molar value. Where a name gives a salt, the structure may show the parent alone.

How the values were obtained:
[1] = tested on: PC9 cells (EGFR d746-750 single mutant); test: PC-9 growth inhibition assay (cell proliferation), Method A; format: cell-based, human; conditions: Homo sapiens, PC-9; cellular proliferation, *tested by method A (Table 2); read-out: SM (PC9) IC50
Experimental: (§1) Cell Proliferation Assays—Method A
(§2) The final concentration was 4,000 cells/well. Add medium only as low control.
(§3) Day-2: Test compounds were dissolved in DMSO at 0.2 mM (200×).
(§4) Day-5: After 72 hours incubation, remove the plates from incubator and equilibrate at room temperature for 15 minutes. Incubate the CellTiter Glo reagents (Promega, G9243) at 37° C. before the experiment. The buffer was equilibrated to room temperature and used to dissolve the substrate. To determine the cell viability, add 30 μL of CellTiter-Glo reagent into each well to be detected. Then shake the plates at room temperature for 10 min and followed by plate read on Envision (PerkinElmer).
(§5) For estimation of IC50, the luminescence readout are transformed to % Inhibition by applying the following equation: The IC50 was then
(§6) [formula] calculated by fitting in XLFit to a four parameters logistic curve.
PC-9 Growth Inhibition Assay (Cell Proliferation)
The inhibition assay for PC-9 cells was processed in the same manner as described for the H1975 cells.

[2] = tested on: NCI-H1975 cells (EGFR L858R/T790 double mutant); test: H1975 inhibition assay (cell proliferation), Method A; format: cell-based; conditions: Homo sapiens, NCI-H1975; cellular proliferation, *tested by method A (Table 2); read-out: DM (H1975) IC50
Experimental: as §1
H1975 Inhibition Assay (Cell Proliferation)
as §2, §3, §4, §5, §6

Wt EGFR = biological target: T1, Wt EGFR (Homo sapiens, UniProt P00533); test: Enzyme assay, IC50 for wt EGFR (Caliper); format: biochemical; conditions: enzyme phosphorylation assay; read-out: EGFR_WT IC50
T1 construct: isolated from A431 human epidermoid carcinoma cells which overexpress EGF receptor; endogenous in cells; host or cells: A431 human epidermoid carcinoma cells (receptor purified on wheat germ agglutinin sepharose)
T1 sequence (P00533 25-1210): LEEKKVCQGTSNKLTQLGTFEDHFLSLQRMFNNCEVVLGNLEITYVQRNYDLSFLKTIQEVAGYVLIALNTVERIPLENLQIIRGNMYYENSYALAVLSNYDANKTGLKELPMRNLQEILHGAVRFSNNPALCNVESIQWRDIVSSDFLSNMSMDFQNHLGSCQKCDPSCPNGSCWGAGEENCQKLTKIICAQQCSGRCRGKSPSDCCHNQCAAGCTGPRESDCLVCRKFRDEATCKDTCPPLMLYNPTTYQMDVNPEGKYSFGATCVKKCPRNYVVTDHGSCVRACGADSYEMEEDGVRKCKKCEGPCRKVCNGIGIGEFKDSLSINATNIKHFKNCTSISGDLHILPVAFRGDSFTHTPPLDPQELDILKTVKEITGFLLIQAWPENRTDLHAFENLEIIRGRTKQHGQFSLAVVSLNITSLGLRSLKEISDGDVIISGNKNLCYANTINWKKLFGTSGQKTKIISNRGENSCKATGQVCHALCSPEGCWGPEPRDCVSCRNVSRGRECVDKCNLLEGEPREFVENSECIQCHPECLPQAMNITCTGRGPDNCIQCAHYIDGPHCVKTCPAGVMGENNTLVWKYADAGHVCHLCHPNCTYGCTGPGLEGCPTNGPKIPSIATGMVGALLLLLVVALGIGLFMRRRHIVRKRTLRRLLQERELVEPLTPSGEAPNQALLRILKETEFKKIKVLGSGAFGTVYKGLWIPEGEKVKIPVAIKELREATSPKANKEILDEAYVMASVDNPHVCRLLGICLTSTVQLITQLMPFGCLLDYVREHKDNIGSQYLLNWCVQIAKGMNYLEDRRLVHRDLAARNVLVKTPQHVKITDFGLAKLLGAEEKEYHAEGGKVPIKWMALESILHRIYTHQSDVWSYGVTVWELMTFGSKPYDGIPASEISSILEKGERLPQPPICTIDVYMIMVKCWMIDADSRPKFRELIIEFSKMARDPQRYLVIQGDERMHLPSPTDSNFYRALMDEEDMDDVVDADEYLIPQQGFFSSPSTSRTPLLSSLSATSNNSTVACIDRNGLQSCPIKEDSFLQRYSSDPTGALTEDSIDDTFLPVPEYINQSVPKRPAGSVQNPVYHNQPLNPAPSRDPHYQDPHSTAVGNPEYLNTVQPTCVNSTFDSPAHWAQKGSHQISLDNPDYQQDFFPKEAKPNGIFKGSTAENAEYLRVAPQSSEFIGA
Experimental: Purification of Epidermal Growth Factor Receptor Tyrosine Kinase Human EGF receptor tyrosine kinase was isolated from A431 human epidermoid carcinoma cells which overexpress EGF receptor by the following methods. Cells were grown in roller bottles in 50% Delbuco's Modified Eagle and 50% HAM F-12 nutrient media (Gibco) containing 10% fetal calf serum. Approximately 10^9 cells were lysed in two volumes of buffer containing 20 mM 2-(4N-[2-hydroxyethyl]piperazin-1-yl)ethanesulfonic acid (hepes), pH 7.4, 5 mM ethylene glycol bis(2-aminoethyl ether) N,N,N′,N′-tetraacetic acid, 1% Triton X-1OO, 10% glycerol. 0.1 mM sodium orthovanadate, 5 mM sodium fluoride, 4 mM pyrophosphate, 4 mM benzamide, 1 mM dithiothreitol, 80 μg/mL aprotinin, 40 μg/mL leupeptin and 1 mM phenylmethylsulfonyl fluoride. After centrifugation at 25,000×g for 10 minutes, the supernatant was equilibrated for 2 h at […], with 10 mL of wheat germ agglutinin sepharose that was previously equilibrated with 50 mM Hepes, 10% glycerol, 0.1% Triton X-100 and 150 mM NaCl, pH 7.5, (equilibration buffer). Contaminating proteins were washed from the resin with 1M NaCl in equilibration buffer, and the enzyme was eluted with 0.5M N-acetyl-1-D-glucosamine in equilibration buffer, followed by 1 mM urea. The enzyme was eluted with 0.1 mg/ml EGF.
Determination of IC50 Values for Wt EGFR
Dilute all compounds to 500 μM stock solutions in 100% DMSO and make a serial of 4-fold dilution for 10 does. “Max” and “Min” control contain 100% DMSO. “Max” stands for […], “Min” stands for low control without compounds. Transfer 10 μl of compounds to 90 μl of Ix kinase base buffer to make intermediate dilution. Transfer 5 μl of intermediate dilution compounds to the 384-well assay plate, then 10 μl 2.5× enzyme buffer containing (20 nM EGFR, 5 mM DTT, 1× kinase base buffer) were added to assay plate. […] Incubate at RT for 1 hr and 25 μl stop buffer to end up reaction. Collect conversion data from Caliper and conversion data from Caliper program. Fit the data in XLfit to obtain IC50 values.

EGFR_d746-750 = EGFR_d746-750 (Homo sapiens, UniProt P00533, DEL746-750); test: Enzyme assay, IC50 for single mutant EGFR_d746-750 (Caliper); format: biochemical; conditions: enzyme phosphorylation assay
EGFR_d746-750, sequence (P00533 with tags, fused parts or gaps DEL746-750): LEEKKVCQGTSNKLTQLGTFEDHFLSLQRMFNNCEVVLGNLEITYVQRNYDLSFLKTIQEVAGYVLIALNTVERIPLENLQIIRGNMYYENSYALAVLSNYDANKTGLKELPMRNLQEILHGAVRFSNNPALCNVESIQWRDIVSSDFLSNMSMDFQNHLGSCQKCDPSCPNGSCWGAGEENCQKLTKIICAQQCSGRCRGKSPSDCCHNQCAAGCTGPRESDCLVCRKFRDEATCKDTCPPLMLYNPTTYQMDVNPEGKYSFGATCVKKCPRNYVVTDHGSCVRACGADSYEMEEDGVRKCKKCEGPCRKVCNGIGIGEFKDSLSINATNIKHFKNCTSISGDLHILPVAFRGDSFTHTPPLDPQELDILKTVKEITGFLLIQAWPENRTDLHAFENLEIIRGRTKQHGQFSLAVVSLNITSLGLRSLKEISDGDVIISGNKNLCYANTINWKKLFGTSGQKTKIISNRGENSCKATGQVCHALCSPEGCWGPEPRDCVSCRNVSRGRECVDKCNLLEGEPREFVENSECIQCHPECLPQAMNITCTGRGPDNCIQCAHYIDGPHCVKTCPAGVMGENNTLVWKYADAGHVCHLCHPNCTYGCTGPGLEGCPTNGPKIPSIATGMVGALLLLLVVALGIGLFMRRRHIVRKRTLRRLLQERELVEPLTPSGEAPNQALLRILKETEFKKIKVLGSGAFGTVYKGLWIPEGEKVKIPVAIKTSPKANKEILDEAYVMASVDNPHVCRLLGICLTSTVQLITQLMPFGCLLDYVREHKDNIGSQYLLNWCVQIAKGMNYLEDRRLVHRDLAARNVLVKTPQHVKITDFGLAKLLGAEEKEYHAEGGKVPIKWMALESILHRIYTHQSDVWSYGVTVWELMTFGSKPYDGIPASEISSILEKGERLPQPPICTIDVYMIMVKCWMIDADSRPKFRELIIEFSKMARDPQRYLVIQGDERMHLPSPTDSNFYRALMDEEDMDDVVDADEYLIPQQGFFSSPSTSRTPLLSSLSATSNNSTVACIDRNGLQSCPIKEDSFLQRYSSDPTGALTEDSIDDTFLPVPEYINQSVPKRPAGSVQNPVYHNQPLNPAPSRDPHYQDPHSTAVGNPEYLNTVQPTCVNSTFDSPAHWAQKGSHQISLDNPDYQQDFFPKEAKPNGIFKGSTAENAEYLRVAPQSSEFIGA
Experimental: (§7) Using the same technique as described in the previous paragraph, various mutated forms of the epidermal growth factor receptor may be isolated from appropriate cell lines which contain them. For example, the EGFR de1746-750 mutant protein may be extracted from PC-9 cells, and the L858R/T790M double mutant EGFR protein may be isolated from H1975 cells.
Determination of IC50 Values for Single Mutant EGFR_d746-750
Dilute all compounds to 500 μM stock solutions in 100% DMSO and make a serial of 4-fold dilution for 10 doses. “Max” and “Min” control contain 100% DMSO. “Max” stands for […], “Min” stands for low control without compounds. Transfer 10 μl of compounds to 90 μl of 1× kinase base buffer to make intermediate dilution. […] Incubate at RT for 1 hr and 25 μl stop buffer to end up reaction. Collect conversion data from Caliper and conversion data from Caliper program. Fit the data in XLfit to obtain IC50 values.

EGFR_T790M/L858R = EGFR_T790M/L858R (Homo sapiens, UniProt P00533, L858R/T790M); test: Enzyme assay, IC50 for double-mutant EGFR (EGFR_T790M/L858R) (Caliper); format: biochemical; conditions: enzyme phosphorylation assay; read-out: EGFR_L858R/T790 IC50
EGFR_T790M/L858R, sequence (P00533 25-1210 T790M/L858R): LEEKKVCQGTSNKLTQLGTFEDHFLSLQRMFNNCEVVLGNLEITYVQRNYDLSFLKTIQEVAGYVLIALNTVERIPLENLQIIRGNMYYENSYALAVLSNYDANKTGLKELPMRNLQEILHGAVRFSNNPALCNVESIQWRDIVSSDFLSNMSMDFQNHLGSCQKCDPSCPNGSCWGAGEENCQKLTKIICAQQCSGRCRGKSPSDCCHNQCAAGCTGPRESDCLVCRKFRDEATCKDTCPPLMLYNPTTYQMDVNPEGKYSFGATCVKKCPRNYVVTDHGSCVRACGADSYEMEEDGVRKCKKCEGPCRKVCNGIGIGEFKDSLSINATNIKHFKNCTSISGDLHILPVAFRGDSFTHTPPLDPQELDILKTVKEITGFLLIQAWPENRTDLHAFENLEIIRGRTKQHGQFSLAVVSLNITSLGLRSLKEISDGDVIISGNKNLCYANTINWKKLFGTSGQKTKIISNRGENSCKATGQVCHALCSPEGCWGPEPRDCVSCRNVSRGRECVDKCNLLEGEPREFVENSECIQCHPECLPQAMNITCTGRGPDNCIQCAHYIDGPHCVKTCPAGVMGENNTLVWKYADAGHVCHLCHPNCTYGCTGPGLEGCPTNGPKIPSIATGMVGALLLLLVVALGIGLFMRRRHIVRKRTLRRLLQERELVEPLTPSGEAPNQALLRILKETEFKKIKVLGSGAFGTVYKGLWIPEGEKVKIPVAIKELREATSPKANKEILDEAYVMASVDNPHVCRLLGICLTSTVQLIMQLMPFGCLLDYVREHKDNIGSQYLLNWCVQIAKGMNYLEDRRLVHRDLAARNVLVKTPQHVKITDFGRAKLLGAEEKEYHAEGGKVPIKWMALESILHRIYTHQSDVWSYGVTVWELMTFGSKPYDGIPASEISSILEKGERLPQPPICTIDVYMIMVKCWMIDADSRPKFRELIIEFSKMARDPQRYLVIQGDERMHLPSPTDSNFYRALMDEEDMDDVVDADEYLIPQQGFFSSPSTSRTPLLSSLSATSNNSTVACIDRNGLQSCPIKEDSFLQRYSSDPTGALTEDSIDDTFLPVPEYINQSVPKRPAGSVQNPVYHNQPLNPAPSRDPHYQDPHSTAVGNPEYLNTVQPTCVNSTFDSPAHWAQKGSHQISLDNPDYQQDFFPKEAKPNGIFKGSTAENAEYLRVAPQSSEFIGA
Experimental: as §7
Determination of IC50 Values for Double-Mutant EGFR (EGFR_T790M/L858R)
Dilute all compounds to 500 μM stock solutions in 100% DMSO and make a serial of 4-fold dilution for 10 does. “Max” and “Min” control contain 100% DMSO. “Max” stands for […], “Min” stands for low control without compounds. Transfer 10 μl of compounds to 90 μl of 1× kinase base buffer to make intermediate dilution. […] Incubate at RT for 1 hr and 25 μl stop buffer to end up reaction. Collect conversion data from Caliper and conversion data from Caliper program. Fit the data in XLfit to obtain IC50 values.

INSR = biological target: T2, INSR (Homo sapiens, UniProt P06213); test: INSR inhibition assay (Caliper EZ Reader); format: biochemical; conditions: enzyme assay
T2 construct: purchased CARNA BIOSCIENCE 08-142
T2 sequence (P06213 989-1382 limits assumed): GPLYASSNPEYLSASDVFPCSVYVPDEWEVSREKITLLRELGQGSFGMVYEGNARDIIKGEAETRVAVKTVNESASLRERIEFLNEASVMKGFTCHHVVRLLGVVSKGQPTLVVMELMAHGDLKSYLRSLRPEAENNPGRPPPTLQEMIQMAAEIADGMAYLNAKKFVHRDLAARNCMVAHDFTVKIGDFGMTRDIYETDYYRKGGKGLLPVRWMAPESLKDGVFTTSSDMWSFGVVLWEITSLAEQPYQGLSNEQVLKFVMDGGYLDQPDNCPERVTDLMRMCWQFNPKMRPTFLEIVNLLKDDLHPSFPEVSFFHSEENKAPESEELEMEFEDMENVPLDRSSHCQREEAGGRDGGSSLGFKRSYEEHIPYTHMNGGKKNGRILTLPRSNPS
Experimental: (§8) Test compound was dissolved in DMSO at 30 mM. […] 20 nL of these compounds DMSO dilutes were dispensed into a new 384-well assay plate by Echo 550. […] 15 uL of kinase assay buffer containing INSR protein and substrate was transferred to assay plate and incubate at RT for 30 minutes. Kinase assay buffer supplemented with substrate peptides was employed as low control to monitor the background. 40 LM ATP was prepared in kinase assay buffer containing and 5 μL of ATP solution was added to each well to start the reaction. The assay plate was incubated at 25° C. for 180 minutes and the reaction was stopped by adding 40 μL of 0.5 M EDTA.
The result is analyzed in the same manner of […].

IGF-1R = biological target: T3, IGF-1R (Homo sapiens, UniProt P08069); test: IGF-1R inhibition assay (Caliper EZ Reader); format: biochemical; conditions: enzyme assay
T3 construct: purchased CARNA BIOSCIENCE 08-141
T3 sequence (P08069 959-1367 limits assumed): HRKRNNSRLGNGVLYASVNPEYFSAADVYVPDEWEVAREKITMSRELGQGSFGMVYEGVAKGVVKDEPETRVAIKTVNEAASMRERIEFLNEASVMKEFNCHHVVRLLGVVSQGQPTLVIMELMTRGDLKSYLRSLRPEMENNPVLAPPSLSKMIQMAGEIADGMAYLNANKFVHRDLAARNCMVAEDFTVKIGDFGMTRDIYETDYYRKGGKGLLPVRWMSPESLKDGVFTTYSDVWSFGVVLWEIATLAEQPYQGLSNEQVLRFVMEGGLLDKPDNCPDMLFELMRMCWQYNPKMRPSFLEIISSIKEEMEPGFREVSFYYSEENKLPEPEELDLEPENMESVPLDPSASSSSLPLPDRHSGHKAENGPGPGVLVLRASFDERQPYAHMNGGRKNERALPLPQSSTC
Experimental: as §8, with “IGF-1R” for “INSR”, “μM” for “LM”
Phosphorylated fluorescent-tagged peptides were differentiated from non-phosphorylated peptides by separating using Caliper EZ Reader II and the detection was directly converted to conversion ratio.

A431 cells (WT) = test: A431 inhibition assay (cell proliferation), Method B; format: cell-based, human; conditions: Homo sapiens, A-431, 72 h, cellular proliferation, several runs
Experimental: (§9) Cell Proliferation Assays—Method B
A431 Inhibition Assay, (Cell Proliferation).
The rest procedure was conducted in the same manner as described above for H1975 cells.

PC9 cells (SM) = test: PC-9 growth inhibition assay (cell proliferation), Method B; format: cell-based, human; conditions: cellular proliferation, several runs
Experimental: as §9
(§10) Test compounds were dissolved in DMSO at 30 mM.
(§11) The final concentration was 1,000 cells/well. Add medium only as low control. […] 5% CO2 incubator for 72 hours.
(§12) After 72 hours incubation, remove the plates from incubator and equilibrate at room temperature for 15 minutes. Incubate the CellTiter Glo reagents (Promega, G9243) at 37° C. before the experiment. The buffer was equilibrated to room temperature and used to dissolve the substrate. To determine the cell viability, add 40 μL of CellTiter-Glo reagent into each well to be detected (at 1:1 to culture medium). Then the place the plates at room temperature for 30 min followed by read on EnSpire (PerkinElmer).
as §5, §6
PC-9 Growth Inhibition Assay (Cell Proliferation).
The inhibition assay of PC-9 cells was conducted in the same manner as described above for H1975 cells.

H1975 cells (DM) = test: H1975 inhibition assay (cell proliferation), Method B; format: cell-based; conditions: cellular proliferation, several runs
Experimental: as §9
H1975 Inhibition Assay (Cell Proliferation).
as §10, §11, §12, §5, §6

Structure (SMILES) | IC50 (INSR) [nM] | IC50 (IGF-1R) [nM] | pIC50 (A431 cells (WT)) | pIC50 (PC9 cells (SM); Homo sapiens, PC-9, 72 h) | pIC50 (H1975 cells (DM); Homo sapiens, NCI-H1975, 72 h) | further results
C=CC(=O)Nc1cc(Nc2nccc(-n3cc(CN)c4ccccc43)n2)c(OC)cc1N(C)CCN(C)C [Example 19, N-(5-(4-(3-(Aminomethyl)-1H-indol-1-yl)pyrimidin-2-ylamino)-2-((2-(dimethylamino)ethyl)(methyl)amino)-4-methoxyphenyl) acrylamide] | – | – | – | – | – | pIC50 [1]: 7.78; pIC50 [2]: 7.90
C=CC(=O)Nc1cc(Nc2nccc(-c3cn(C)c4cccc(C)c34)n2)c(OC)cc1N(C)CCN(C)C [Example 5, N-(2-(N-(2-(N,N-Dimethylamino)ethyl)-N-methylamino)-4-methoxy-5-(4-(1 N,4-dimethylindol-3-yl)pyrimidin-2-ylamino)phenyl)propenamide] | – | – | – | – | – | pIC50 (Wt EGFR): 7.51; pIC50 (EGFR_d746-750): 8.09; pIC50 (EGFR_T790M/L858R): 8.57
C=CC(=O)Nc1cc(Nc2nccc(-c3cn(C)c4cccc(Cl)c34)n2)c(OC)cc1N(C)CCN(C)C [Example 6, N-(2-(N-(2-(N,N-Dimethylamino)ethyl)-N-methylamino)-4-methoxy-5-(4-(4-chloro-1N-methylindol-3-yl)pyrimidin-2-ylamino)phenyl) propenamide] | – | – | – | – | – | pIC50 (Wt EGFR): 7.36; pIC50 (EGFR_d746-750): 8.04; pIC50 (EGFR_T790M/L858R): 8.15
C=CC(=O)Nc1cc(Nc2nccc(-n3cc(C(=O)NC)c4ccccc43)n2)c(OC)cc1N(C)CCN(C)C [Example 36, N-Methyl 1-(2-((5-acrylamido-4-((2-(dimethylamino)ethyl)(methyl)amino)-2-methoxyphenyl)amino)pyrimidin-4-yl)-1H-indole-3-carboxamide hydrochloride] | – | – | – | – | – | pIC50 [1]: 7.24; pIC50 [2]: 7.40
C=CC(=O)Nc1cc(Nc2nccc(-n3cc(C(=O)O)c4ccccc43)n2)c(OC)cc1N(C)CCN(C)C [Example 30, 1-(2-((5-Acrylamido-4-((2-(dimethylamino)ethyl)(methyl)amino)-2-methoxyphenyl)amino)pyrimidin-4-yl)-1H-indole-3-carboxylic acid] | 206 | 210 | 5.78 | 7.72 | 7.69 | –
C=CC(=O)Nc1cc(Nc2nccc(-n3nc(C(N)=O)c4ccccc43)n2)c(OC)cc1N(C)CCN(C)C [Example 18, 1-(2-(5-Acrylamido-4-((2-(dimethylamino)ethyl)(methyl)amino)-2-methoxyphenylamino)pyrimidin-4-yl)-1H-indazole-3-carboxamide] | 2.28 | 2.15 | 7.40 | 9.19 | 9.39 | –
C=CC(=O)Nc1cc(Nc2nccc(-n3cc(S(N)(=O)=O)c4ccccc43)n2)c(OC)cc1N(C)CCN(C)C [Example 17, N-(2-((2-(Dimethylamino)ethyl)(methyl)amino)-4-methoxy-5-(4-(3-sulfamoyl-1H-indol-1-yl)pyrimidin-2-ylamino)phenyl) acrylamide] | 67.6 | 71.2 | 6.79 | 9.03 | 9.03 | –
C=CC(=O)Nc1cc(Nc2nccc(-n3nc(N)c4ccccc43)n2)c(OC)cc1N(C)CCN(C)C [Example 20] | 19.3 | 23.5 | – | 8.72 | 8.63 | pIC50 (PC9 cells (SM); 72 h): 8.81; pIC50 (H1975 cells (DM); 72 h): 8.67
C=CC(=O)Nc1cc(Nc2nccc(-c3c[nH]c4c(C(N)=O)cccc34)n2)c(OC)cc1N(C)CCN(C)C [Example 16, 3-(2-(5-Acrylamido-4-((2-(dimethylamino)ethyl)(methyl)amino)-2-methoxyphenylamino)pyrimidin-4-yl)-1H-indole-7-carboxamide] | 4.76 | 3.94 | 6.92 | 9.12 | 9.14 | –
